Test results from US5446039A, “Therapeutic benzazapine compounds” (Imperial Chemical Industries, PLC, priority 1991, dated 1995).

Tests used:
[1] = biological target: T1, glycine receptor of the NMDA receptor complex (Rattus norvegicus, UniProt P35439); test: [3H]-glycine binding assay at the N-methyl-D-aspartate receptor, rat neuronal synaptic membranes (cortices and hippocampi); set-up: species or system male Sprague-Dawley rats; details: 20 nM [3H]-glycine, pH 7.1, 30 minutes at 4° C.
T1 construct: Freshly dissected cortices and hippocampi are homogenized in 0.32 M sucrose; from tissue; host or cells: synaptic membranes of cortices and hippocampi of adult male Sprague-Dawley rats
Method: (§1) The actions of compounds of formula I as antagonists at the glycine receptor of the NMDA receptor complex can be shown by standard tests such as the [^3 H]-glycine binding assay, by functional assays in vitro such as tests for measuring glutamate evoked contractions of the guinea pig ileum, and by tests in vivo such as ischemia induced by carotid occlusion in the gerbil model.
In the [^3 H]-glycine binding assay, neuronal synaptic membranes are prepared from adult (about 250 g) male Sprague-Dawley rats. Freshly dissected cortices and hippocampi are homogenized in 0.32 M sucrose (110 mg/mL). Synaptosomes are isolated by centrifuga-tion (1000×g, 10 min), the supernatant is pelleted (20,000×g, 20 min) and resuspended in double-distilled water. The suspension was centrifuged for 20 minutes at 8,000×g. The resulting supernatant and buffy coat are washed twice (48,000×g, 10 mins, resuspension in double-deionized water). The final pellet is quickly frozen (dry iceethanol bath) under double-deionized water and stored at -70° C.
On the day of the experiment, thawed synaptic membranes are homogenized with a Brinkmann Polytron (tm, Brinkmann Instruments, Westbury, N.Y.) tissue homogenizer in 50 mM tris(hydroxymethyl)aminomethane citrate, pH 7.1. The membranes are incubated with 0. 04% Sufact-AMPS X100 (tm, Pierce, Rockford, Ill.) in buffer for 20 minutes at 37° C. and washed six times by centrifugation (48,000×g, 10 min) and resuspended in buffer. The final pellet is homogenized at 200 mg wet weight/mL of the buffer for the binding assay.
For [^3 H]-glycine binding at the N-methyl-D-aspartate receptor, 20 nM [^3 H]-glycine (40-60 Ci/mmol, New England Nuclear, Boston, Mass.) is incubated with the membranes suspended in 50 mM tris (hydroxymethyl)aminomethane citrate, pH 7.1 for 30 minutes at 4° C. Glycine, 1 mM, is used to define the nonspecific binding. […] Radioactivity is estimated by liquid scintillation counting. […]

[2] = system: neuronal damage in the hippocampus; test: gerbil ischemic model (bilateral carotid occlusion), hippocampal neuronal damage rating; type: in vivo, adult female Mongolian gerbils
Text: as §1
When testing in vivo using the gerbil ischemic model, adult female Mongolian gerbils (50-70 g) are anesthetized with 2 to 3% halothane. The bilateral common carotid arteries at the neck are exposed and occluded with microaneurysm clips. After 10 min (unless specified), the clips are removed and the blood flow through the carotid arteries is restored and the skin is sutured. Test compounds are administered intraperitoneally both pre- and post-occlusion, for example 45 minutes before and 5 minutes after occlusion of the carotid arteries. Sham-operated animals are treated in the same manner except that the arteries are not clamped. Gross behavioral observations along with motor activity are recorded for 2 hr on the first (24 hr) day following the occlusion. After 4 days, subjects are sacrificed (decapitation), brains are removed, fixed, sectioned and stained with hematoxylin/eosin and cresyl violet.
The brain sections are rated for neuronal damage in the hippocampus using the following rating scale:
1=slight damage (up to 25%)--restricted CA1/subiculum border
2=moderate damage (up to 50%)--obvious damage, restricted to less than half of CA1 field
3=marked damage (up to 75%)--involving greater than half of CA1 field
4=damage extending beyond CA1 field
Results can be reported as the percentage of neuroprotection afforded by a particular dose and dosing regimen.
Sections (7 micron) are evaluated from each brain. Occasionally, asymmetrical damage may be noted and the rating assigned is the average score of the two sides. The average brain damage rating score for each group is recorded, and the damage scores of the drug treated group are compared to the vehicle-treated group using Wilcoxcon-Rank Sum test.
Typical values in this test for compounds according to the invention are illustrated by the following results: for the compound of Example 1, 57% neuroprotection (relative to sham-operated control) when dosed twice with 20 mg/kg body weight intraperitoneally (ip) according to the above regimen; 44% neuroprotection when dosed with 30 mg/kg body weight ip three times at 15, 30, and 45 minutes after induction of ischemia; for the compound of Example 3, 83% neuroprotection when dosed twice with 30 mg/kg body weight ip according to the above regimen; for the compound of Example 1a, 78% neuroprotection when dosed twice with 20 mg/kg body weight ip according to the above regimen.

[3] = system: NMDA receptor channel complex; test: inhibition of glutamate evoked contractions of the guinea pig ileum (longitudinal muscle/myenteric plexus); type: cell-based; details: 100 μM glutamate; test compound added 5 minutes before the glutamate
Text: as §1
For glutamate evoked contractions of the guinea pig ileum, the methodology is as described previously (Luzzi et. al., Br. J. Pharmacol., 95, 1271-1277 (1989). The longitudinal muscle and associated myenteric plexus are removed and placed in oxygenated modified Krebs-Henseleit solution (118 mM NaCl, 4.7 mM KCl, 2.5 mM CaCl2, 1.2 mM KH2 PO4, 25 mM NaHCO3, and 11 mM glucose). Tissues are suspended on glass rods in organ baths under a resting tension of 0.5 g. After an initial depolarization with 80 mM potassium to remove possible blockade of the NMDA receptor channel complex with magnesium, twitch responses are evoked with 100 μM glutamate. Isometric mechanical responses are recorded. Tissues are equilibrated for at least 2 hours prior to addition of compounds.
A dose response curve for the effect of the unknown on the magnitude of the glutamate-evoked contractions is generated. Glutamate-evoked contractions are generated at 20 minute intervals, with the test compound added 5 minutes before the glutamate. […]

[4] = dosed twice with 20 mg/kg ip, pre- and post-occlusion (e.g. 45 min before and 5 min after), Example 1: relative to sham-operated control

Row | Compound | IC50 [1] | neuroprotection ([2]; 30 mg/kg ip three times at 15, 30, and 45 minutes after induction of ischemia) | neuroprotection [2, 4] | IC50 [3] | neuroprotection ([2]; dosed twice with 30 mg/kg ip, pre- and post-occlusion (e.g. 45 min before and 5 min after))
1 | O=c1[nH]c2cc(Cl)ccc2c(=O)cc1O [Example 1, 8-Chloro-2,5-dihydro-2,5-dioxo-3-hydroxy-1H-benz[b]azepine] | 30 nM | 44% | 57% | 110 nM | 
2 | COc1cc(=O)c2ccc(Cl)cc2[nH]c1=O [Example 1a, 8-Chloro-2,5-dihydro-2,5-dioxo-3-methoxy-1H-benz[b]azepine] | 1000 nM |  | 78% |  | 
3 | O=c1[nH]c2cc(Br)ccc2c(=O)cc1O [Example 3, 8-bromo-2,5-dihydro-2,5-dioxo-3-hydroxy-1H-benz[b]azepine] | 97 nM |  |  | 1000 nM | 83%
